Results reported in patent US20230242530A1, “8-(AZETIDIN-1-YL)-[1,2,4]TRIAZOLO[1,5-A]PYRIDINYL COMPOUNDS, COMPOSITIONS AND METHODS OF USE THEREOF” (Genentech, Inc., priority 2016, published 2023).

Assays:
[1] = molecular target: T1, isolated recombinant JAK1 kinase domain (Homo sapiens, UniProt P23458); assay: JAK enzyme assay, JAK1 kinase domain (Caliper LabChip); format: biochemical; settings: 1.5 nM JAK1, ATP 25 μM, Morrison tight binding model
T1 construct: isolated recombinant JAK1 and JAK2 kinase domain
Description: (§1) JAK Enzyme Assays were Carried Out as Follows:
(§2) The activity of the isolated recombinant JAK1 and JAK2 kinase domain was measured by monitoring phosphorylation of a peptide derived from JAK3 (Val-Ala-Leu-Val-Asp-Gly-Tyr-Phe-Arg-Leu-Thr-Thr, fluorescently labeled on the N-terminus with 5-carboxyfluorescein) using the Caliper LabChip® technology (Caliper Life Sciences, Hopkinton, Mass.). […] Reactions were incubated at 22 °C in 384-well polypropylene microtiter plates for 30 minutes and then stopped by addition of 25 μL of an EDTA containing solution (100 mM HEPES buffer (pH 7.2), 0.015% Brij-35, 150 mM EDTA), resulting in a final EDTA concentration of 50 mM. After termination of the kinase reaction, the proportion of phosphorylated product was determined as a fraction of total peptide substrate using the Caliper LabChip® 3000 according to the manufacturer's specifications. Ki values were then determined using the Morrison tight binding model (Morrison, J. F., Biochim. Biophys. Acta. 185:269-296 (1969); William, J. W. and Morrison, J. F., Meth. Enzymol., 63:437-467 (1979)) modified for ATP-competitive inhibition [Ki=Ki,app/(1+[ATP]/Km,app)].

[2] = tested on: JAK1-dependent STAT6 phosphorylation downstream of IL-13 stimulation in BEAS-2B cells; assay: JAK1 pathway assay in cell lines: IL-13 p-STAT6 BEAS-2B; format: cell-based; settings: BEAS-2B human bronchial epithelial cells, 1 hr compound, IL-13 15 min, MSD readout
Description: JAK1 Pathway Assay in Cell Lines was Carried Out as Follows:
Inhibitor potency (EC50) was determined in cell-based assays designed to measure JAK1 dependent STAT phosphorylation. As noted above, inhibition of IL-4, IL-13, and IL-9 signalling by blocking the Jak/Stat signaling pathway can alleviate asthmatic symptoms in pre-clinical lung inflammation models (Mathew et al., 2001, J Exp Med 193(9): 1087-1096; Kudlacz et. al., 2008, Eur J. Pharmacol 582(1-3): 154-161).
In one assay approach, TF-1 human erythroleukemia cells obtained from the American Type Culture Collection (ATCC; Manassas, Va.) were used to measure JAK1-dependent STAT6 phosphorylation downstream of IL-13 stimulation. Prior to use in the assays, TF-1 cells were starved of GM-CSF overnight in OptiMEM medium (Life Technologies, Grand Island, N.Y.) supplemented with 0.5% charcoal/dextran stripped fetal bovine serum (FBS), 0.1 mM non-essential amino acids (NEAA), and 1 mM sodium pyruvate. The assays were run in 384-well plates in serum-free OptiMEM medium using 300,000 cells per well. In a second assay approach, BEAS-2B human bronchial epithelial cells obtained from ATCC were plated at 100,000 cells per well of a 96-well plate one day prior to the experiment. The BEAS-2B assay was run in complete growth medium (bronchial epithelial basal medium plus bulletkit; Lonza; Basel, Switzerland).
Test compounds were serially diluted 1:2 in DMSO and then diluted 1:50 in medium just before use. Diluted compounds were added to the cells, for a final DMSO concentration of 0.2%, and incubated for 30 mi (for the TF-1 assay) or 1 hr (for the BEAS-2B assay) at 37 QC. Then, cells were stimulated with human recombinant cytokine at their respective EC90 concentrations, as previously determined for each individual lot. Cells were stimulated with IL-13 (R&D Systems, Minneapolis, Minn.) for 15 min at 37 °C. The TF-1 cell reactions were stopped by the direct addition of 10× lysis buffer (Cell Signaling Technologies, Danvers, Mass.), whereas the BEAS-2B cell incubations were halted by the removal of medium and addition of 1× lysis buffer. The resultant samples were frozen in the plates at −80 °C. Compound mediated inhibition of STAT6 phosphorylation was measured in the cell lysates using MesoScale Discovery (MSD) technology (Gaithersburg, Md.). EC50 values were determined as the concentration of compound required for 50% inhibition of STAT phosphorylation relative to that measured for the DMSO control.

[3] = molecular target: T2, isolated recombinant JAK2 kinase domain (Homo sapiens, UniProt O60674); assay: JAK enzyme assay, JAK2 kinase domain (Caliper LabChip); format: biochemical; settings: 0.2 nM JAK2, ATP 25 μM, Morrison tight binding model
T2 construct: isolated recombinant JAK1 and JAK2 kinase domain
Description: as §1, §2

T2 sequence (O60674 849-1124 limits assumed): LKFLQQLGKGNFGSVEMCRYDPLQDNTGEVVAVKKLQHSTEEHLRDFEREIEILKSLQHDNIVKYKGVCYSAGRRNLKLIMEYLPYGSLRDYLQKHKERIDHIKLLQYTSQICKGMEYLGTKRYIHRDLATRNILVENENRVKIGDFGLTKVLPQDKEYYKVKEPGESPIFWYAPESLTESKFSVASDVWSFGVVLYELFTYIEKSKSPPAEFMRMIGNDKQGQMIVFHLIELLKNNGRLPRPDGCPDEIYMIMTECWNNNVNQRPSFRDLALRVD
T1 sequence (P23458 875-1153 limits assumed): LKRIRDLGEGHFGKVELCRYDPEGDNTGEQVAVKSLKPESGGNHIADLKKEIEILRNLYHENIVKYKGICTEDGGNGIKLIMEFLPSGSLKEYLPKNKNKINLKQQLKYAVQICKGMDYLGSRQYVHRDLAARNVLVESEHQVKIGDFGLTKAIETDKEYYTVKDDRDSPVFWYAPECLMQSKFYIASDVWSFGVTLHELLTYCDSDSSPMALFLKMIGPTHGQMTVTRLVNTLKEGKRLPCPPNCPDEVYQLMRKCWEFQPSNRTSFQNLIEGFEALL

Ki [1] | Ki [3] | SMILES | EC50 [2]
0.5 nM | 3.7 nM | Cc1ccccc1-c1cnn(C2(CC#N)CN(c3cccn4nc(Nc5cnn(CC(=O)N6CCN(C7COC7)CC6)c5)nc34)C2)c1 [Example 122, formic acid;2-[3-[4-(o-tolyl)pyrazol-1-yl]-1-[2-[[1-[2-[4-(oxetan-3-yl)piperazin-1-yl]-2-oxo-ethyl]pyrazol-4-yl]amino]-[1,2,4]triazolo[1,5-a]pyridin-8-yl]azetidin-3-yl]acetonitrile] | 43 nM
0.4 nM | 0.7 nM | N#CCC1(c2cccc(Cl)c2)CN(c2cccn3nc(Nc4cnn(CC(=O)N5CCC(NC6COC6)CC5)c4)nc23)C1 [Example 93, 2-[3-(3-chlorophenyl)-1-[2-[[1-[2-[4-(oxetan-3-ylamino)-1-piperidyl]-2-oxo-ethyl]pyrazol-4-yl]amino]-[1,2,4]triazolo[1,5-a]pyridin-8-yl]azetidin-3-yl]acetonitrile] | 79 nM
0.1 nM | 1.4 nM | N#CCC1(n2cc(SC(F)F)cn2)CN(c2cccn3nc(Nc4cn[nH]c4)nc23)C1 [Example 151, 2-[3-[4-(difluoromethylsulfanyl)pyrazol-1-yl]-1-[2-(1H-pyrazol-4-ylamino)-[1,2,4]triazolo[1,5-a]pyridin-8-yl]azetidin-3-yl]acetonitrile] | 42 nM
0.4 nM | 2 nM | CCc1cnn(C2(CC#N)CN(c3cccn4nc(Nc5cccc(C(=O)N6CCN(C)CC6)c5)nc34)C2)c1 [Example 75, 2-[3-(4-ethylpyrazol-1-yl)-1-[2-[3-(4-methylpiperazine-1-carbonyl)anilino]-[1,2,4]triazolo[1,5-a]pyridin-8-yl]azetidin-3-yl]acetonitrile] | 26 nM
0.9 nM | 2.4 nM | CN1CCN(C(=O)Cn2cc(Nc3nc4c(N5CC(CC#N)(N6CCC(F)(F)CC6)C5)cccn4n3)cn2)CC1 [Example 12, 2-[3-(4,4-difluoro-1-piperidyl)-1-[2-[[1-[2-(4-methylpiperazin-1-yl)-2-oxo-ethyl]pyrazol-4-yl]amino]-[1,2,4]triazolo[1,5-a]pyridin-8-yl]azetidin-3-yl]acetonitrile] | 27 nM
2.2 nM | 29.5 nM | CCc1cnn(C2(CC#N)CN(c3cccn4nc(Nc5ccc(C(=O)N6CCN(C7COC7)CC6)cc5)nc34)C2)c1 [Example 44, 2-[3-(4-ethylpyrazol-1-yl)-1-[2-[4-[4-(oxetan-3-yl)piperazine-1-carbonyl]anilino]-[1,2,4]triazolo[1,5-a]pyridin-8-yl]azetidin-3-yl]acetonitrile] | 648 nM
1.2 nM | 5.1 nM | CN1CCN(C(=O)Cn2cc(Nc3nc4c(N5CC(CC#N)(Cc6cccc(Cl)c6)C5)cccn4n3)cn2)CC1 [Example 102, 2-[3-[(3-chlorophenyl)methyl]-1-[2-[[1-[2-(4-methylpiperazin-1-yl)-2-oxo-ethyl]pyrazol-4-yl]amino]-[1,2,4]triazolo[1,5-a]pyridin-8-yl]azetidin-3-yl]acetonitrile] | 290 nM
0.6 nM | 3.7 nM | CC(C)Sc1ccc(C2(CC#N)CN(c3cccn4nc(Nc5cnn(CC(=O)N6CCN(C)CC6)c5)nc34)C2)cc1 [Example 16, 2-[3-(4-isopropylsulfanylphenyl)-1-[2-[[1-[2-(4-methylpiperazin-1-yl)-2-oxo-ethyl]pyrazol-4-yl]amino]-[1,2,4]triazolo[1,5-a]pyridin-8-yl]azetidin-3-yl]acetonitrile] | 19 nM
0.1 nM | 0.2 nM | N#CCC1(n2cc(OC(F)F)cn2)CN(c2cccn3nc(Nc4cnn(CC(F)F)c4)nc23)C1 [Example 150, 2-[1-[2-[[1-(2,2-difluoroethyl)pyrazol-4-yl]amino]-[1,2,4]triazolo[1,5-a]pyridin-8-yl]-3-[4-(difluoromethoxy)pyrazol-1-yl]azetidin-3-yl]acetonitrile] | 6 nM
0.2 nM | 0.2 nM | CCc1cnn(C2(CC#N)CN(c3cccn4nc(Nc5cnn(CC(=O)N6CCN(CCOC)CC6)c5)nc34)C2)c1 [Example 46, 2-[3-(4-ethylpyrazol-1-yl)-1-[2-[[1-[2-[4-(2-methoxyethyl)piperazin-1-yl]-2-oxo-ethyl]pyrazol-4-yl]amino]-[1,2,4]triazolo[1,5-a]pyridin-8-yl]azetidin-3-yl]acetonitrile] | 7 nM
2.4 nM | 22.9 nM | N#CCC1(n2cc(C(F)(F)F)cn2)CN(c2cccn3nc(Nc4ccc(CC(=O)N5CCN(C6COC6)CC5)cc4)nc23)C1 [Example 115, 2-[1-[2-[4-[2-[4-(oxetan-3-yl)piperazin-1-yl]-2-oxo-ethyl]anilino]-[1,2,4]triazolo[1,5-a]pyridin-8-yl]-3-[4-(trifluoromethyl)pyrazol-1-yl]azetidin-3-yl]acetonitrile] | 139 nM
1.8 nM | 2 nM | CCc1cnn(C2(CC#N)CN(c3cccn4nc(Nc5ccc6c(c5)CCN(C)C6)nc34)C2)c1 [Example 50, 2-[3-(4-ethylpyrazol-1-yl)-1-[2-[(2-methyl-3,4-dihydro-1H-isoquinolin-6-yl)amino]-[1,2,4]triazolo[1,5-a]pyridin-8-yl]azetidin-3-yl]acetonitrile] | 65 nM
1 nM | 2.8 nM | CCc1cnn(C2(C(C)C#N)CN(c3cccn4nc(Nc5cnn(CC(=O)N6CCN(C)CC6)c5)nc34)C2)c1 (stereo not drawn) [Example 54, 2-[3-(4-ethylpyrazol-1-yl)-1-[2-[[1-[2-(4-methylpiperazin-1-yl)-2-oxo-ethyl]pyrazol-4-yl]amino]-[1,2,4]triazolo[1,5-a]pyridin-8-yl]azetidin-3-yl]propanenitrile] | 231 nM
0.5 nM | 1.5 nM | CN1CCN(C(=O)Cn2cc(Nc3nc4c(N5CC(CC#N)(n6cc(CNCC(F)(F)F)cn6)C5)cccn4n3)cn2)CC1 [Example 48] | 33 nM
1 nM | 3 nM | CCCc1cnn(C2(CC#N)CN(c3cccn4nc(Nc5cnn(CC(=O)N6CCN(C)CC6)c5)nc34)C2)c1 [Example 22] | 36 nM
1 nM | 4.6 nM | N#CCC1(n2cc(C(F)(F)F)cn2)CN(c2cccn3nc(Nc4cccc(C(=O)N5CCC(N6CCOCC6)CC5)c4)nc23)C1 [Example 112, formic acid;2-[1-[2-[3-(4-morpholinopiperidine-1-carbonyl)anilino]-[1,2,4]triazolo[1,5-a]pyridin-8-yl]-3-[4-(trifluoromethyl)pyrazol-1-yl]azetidin-3-yl]acetonitrile] | 69 nM
0.4 nM | 1.3 nM | CC(=O)N1CCN(CC2CCN(C(=O)Cn3cc(Nc4nc5c(N6CC(CC#N)(c7cccc(Cl)c7)C6)cccn5n4)cn3)CC2)CC1 [Example 95, 2-[1-[2-[[1-[2-[4-[(4-acetylpiperazin-1-yl)methyl]-1-piperidyl]-2-oxo-ethyl]pyrazol-4-yl]amino]-[1,2,4]triazolo[1,5-a]pyridin-8-yl]-3-(3-chlorophenyl)azetidin-3-yl]acetonitrile] | 41 nM
